Patent US9216173B2, “2-Pyridyl carboxamide-containing spleen tyrosine kinase (SYK) inhibitors” (Merck Sharp & Dohme Corp., priority 2011, dated 2015)

tested on: not given; experiment: not given; settings: phase II clinical trial, allergic rhinitis; cited from earlier work

SMILES | efficacy versus placebo
Oc1cccc(Nc2ncc(F)c(Nc3cccc(O)c3)n2)c1 [Example R112] | lack of efficacy

tested on: PGD2; experiment: not given; settings: dosed intranasally, phase I/II, allergic rhinitis; cited from earlier work

SMILES | PGD2 level | clinical safety
Oc1cccc(Nc2ncc(F)c(Nc3cccc(O)c3)n2)c1 [Example R112] | statistically significant decrease | safe across a range of indicators

molecular target: T1, recombinant human GST-SYK (Homo sapiens, UniProt P43405); experiment: Homogeneous Time-Resolved Fluorescence (HTRF) assay for the recombinant human Syk enzyme; assay type: biochemical; settings: GST-hSYK 5 pM, ATP 25 μM, 10-dose titration 10 μM to 0.508 nM; read-out: IC50
T1 construct: purchased Carna Biosciences 08-176
How it was run: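 GST-hSYK fusion phosphorylates a peptide for 45 min at room temperature. Quenched with EDTA buffer containing 2 nM Eu-anti-phosphotyrosine antibody and 70 nM SA-APC. HTRF signal read after 30 min.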

SMILES | IC50 [nM]
Cc1nc(C)c(Cl)c(Nc2cc(N[C@@H]3CCCC[C@@H]3N)cnc2C(N)=O)n1 [Example 1.126, 5-{[(1R,2S)-2-aminocyclohexyl]amino}-3-[(5-chloro-2,6-dimethylpyrimidin-4-yl)amino]pyridine-2-carboxamide] | 1300

same assay, conditions: GST-hSYK 5 pM, ATP 25 μM, 10-dose titration 10 μM to 0.508 nM; read-out: rhSYK Activity (IC50 rating)

SMILES | IC50 [nM]
Cc1nc(C)c(Cl)c(Nc2cc(N[C@@H]3CCCC[C@@H]3N)cnc2C(N)=O)n1 [Example 1.126, 5-{[(1R,2S)-2-aminocyclohexyl]amino}-3-[(5-chloro-2,6-dimethylpyrimidin-4-yl)amino]pyridine-2-carboxamide] | 1000 to 10000
Cc1cc(C)n2nc(Nc3cc(N[C@@H]4CCCC[C@@H]4N)cnc3C(N)=O)cc2n1 [Example 1.55, 5-{[(1R,2S)-2-aminocyclohexyl]amino}-3-[(5,7-dimethylpyrazolo[1,5-a]pyrimidin-2-yl)amino]pyridine-2-carboxamide] | < 10
Cc1cc(Cl)nc(Nc2cc(N[C@@H]3CCCC[C@@H]3N)cnc2C(N)=O)c1 [Example 1.38, 5-{[(1R,2S)-2-aminocyclohexyl]amino}-3-[(6-chloro-4-methylpyridin-2-yl)amino]pyridine-2-carboxamide] | < 10
Cc1nc(Nc2cc(N[C@@H]3CCCC[C@@H]3N)cnc2C(N)=O)ccc1-c1ccc2c(c1)C(=O)NC2 [Example 3.16, 5-{[(1R,2S)-2-aminocyclohexyl]amino}-3-{[6-methyl-5-(3-oxo-2,3-dihydro-1H-isoindol-5-yl)pyridin-2-yl]amino}pyridine-2-carboxamide] | < 10
Cc1cc(Cl)cc(Nc2cc(N[C@@H]3CCCC[C@@H]3N)cnc2C(N)=O)n1 [Example 1.12, 5-{[(1R,2S)-2-aminocyclohexyl]amino}-3-[(4-chloro-6-methylpyridin-2-yl)amino]pyridine-2-carboxamide] | < 10
Cc1cc(C)nc(Nc2cc(NCC(N)C3CC3)cnc2C(N)=O)c1 (stereo not drawn) [Example 1.118, 5-[(2-amino-2-cyclopropylethyl)amino]-3-[(4,6-dimethylpyridin-2-yl)amino]pyridine-2-carboxamide] | < 10
Cc1nc(Nc2cc(N[C@@H]3CCCC[C@@H]3N)cnc2C(N)=O)ccc1-n1ccnn1 [Example 1.74, 5-{[(1R,2S)-2-aminocyclohexyl]amino}-3-{[6-methyl-5-(1H-1,2,3-triazol-1-yl)pyridin-2-yl]amino}pyridine-2-carboxamide] | < 10
NC(=O)c1ncc(N[C@H]2[C@@H](N)CCCC2(F)F)cc1Nc1cccc(C(F)(F)F)n1 [Example 1.106, 5-{[(1S,6S)-6-amino-2,2-difluorocyclohexyl]amino}-3-{[6-(trifluoromethyl)pyridin-2-yl]amino}pyridine-2-carboxamide] | < 10
CN1CCN(c2cccc(Nc3cc(N[C@@H]4CCCC[C@@H]4N)cnc3C(N)=O)n2)CC1 [Example 1.119, 5-{[(1R,2S)-2-aminocyclohexyl]amino}-3-{[6-(4-methylpiperazin-1-yl)pyridin-2-yl]amino}pyridine-2-carboxamide] | < 10
Cc1nc(Nc2cc(N[C@@H]3CCCC[C@@H]3N)cnc2C(N)=O)ccc1-c1ccc(-n2nccn2)cc1 [Example 3.15, 5-{[(1R,2S)-2-aminocyclohexyl]amino}-3-({6-methyl-5-[4-(2H-1,2,3-triazol-2-yl)phenyl]pyridin-2-yl}amino)pyridine-2-carboxamide] | < 10
CCC(CN)Nc1cnc(C(N)=O)c(Nc2ccn(-c3ccc(F)cc3)n2)c1 (stereo not drawn) [Example 1.96, 5-{[1-(aminomethyl)propyl]amino}-3-{[1-(4-fluorophenyl)-1H-pyrazol-3-yl]amino}pyridine-2-carboxamide] | < 10
Cc1nc(Nc2cc(NC[C@H](C)N)cnc2C(N)=O)ccc1Br [Example 2.2, 5-{[(2S)-2-aminopropyl]amino}-3-[(5-bromo-6-methylpyridin-2-yl)amino]pyridine-2-carboxamide] | < 10
CN1CCN(Cc2cccc(Nc3cc(N[C@@H]4CCCC[C@@H]4N)cnc3C(N)=O)n2)CC1 [Example 1.61, 5-{[(1R,2S)-2-aminocyclohexyl]amino}-3-({6-[(4-methylpiperazin-1-yl)methyl]pyridin-2-yl}amino)pyridine-2-carboxamide] | 100 to 1000
NC(=O)c1ncc(N[C@@H]2CCCC[C@@H]2N)cc1Nc1cccc(-c2ccccn2)n1 [Example 1.42, 5-{[(1R,2S)-2-aminocyclohexyl]amino}-3-(2,2′-bipyridin-6-ylamino)pyridine-2-carboxamide] | < 10
